Experimental data published in paper PMC9298070, “Lack of a Clinically Meaningful Drug Interaction Between the HIV‐1 Antiretroviral Agents Islatravir, Dolutegravir, and Tenofovir Disoproxil Fumarate” (Clinical Pharmacology in Drug Development, 2021).
Like-named read-outs stand apart in the source and are kept apart here.

Key:
[1] = system: uridine diphosphate glucuronosyltransferase 1A1; parameters: method as in PMID 34452431; details: at concentrations up to 100 μM; cited from earlier work
[2] = system: CYP2C8; parameters: method as in PMID 34452431; details: at concentrations up to 100 μM; cited from earlier work
[3] = system: CYP2B6; parameters: method as in PMID 34452431; details: at concentrations up to 100 μM; cited from earlier work
[4] = system: drug transporters, pumps, transfer proteins, extrusion proteins, or resistance proteins; details: cited from earlier work
[5] = system: CYP1A2; parameters: method as in PMID 34452431; details: at concentrations up to 100 μM; cited from earlier work
[6] = system: CYP2D6; parameters: method as in PMID 34452431; details: at concentrations up to 100 μM; cited from earlier work
[7] = system: HIV‐1; parameters: method as in ref 17 = [17]; 17 Molina JM , Yazdanpanah Y , Afani Saud A , et al. MK‐8591 at doses of 0.25 to 2.25 mg QD, in combination with doravirine establishes and maintains viral suppression through 48 weeks in treatment‐na; details: islatravir in combination with doravirine, treatment-naive adults with HIV-1, phase 2b; cited from earlier work
[8] = system: CYP3A4; parameters: method as in PMID 34452431; details: up to 200 μM; cited from earlier work
[9] = system: HIV‐1; parameters: method as in PMID 31911147; details: single oral dose as low as 0.5 mg, treatment-naive adults with HIV-1; cited from earlier work
[10] = system: CYP2C19; parameters: method as in PMID 34452431; details: at concentrations up to 100 μM; cited from earlier work
[11] = parameters: method as in ref 14, 15 = [14]; 14 Rudd D , Cao Y , Vaddady P , et al. Modeling‐supported islatravir dose selection for phase 3 . Poster presented at Conference on Retroviruses and Opportunistic Infections (CROI); March 8–10 , 2020 || [15]; 15 Matthews RP , Rudd JD , Levine V , et al. Multiple daily doses of MK‐8591 as low as 0.25 mg are expected to suppress HIV . Oral presentation at Conference on Retroviruses and Opportunistic Infectio; details: single oral doses of islatravir, adults without HIV; cited from earlier work
[12] = Plasma pharmacokinetics in phase 1, open-label, fixed-sequence, 2-period drug interaction trial (MK-8591-005); type: in vivo, human
Procedure: (§1) This was a phase 1, open‐label, fixed‐sequence, 2‐period trial in adults without HIV (protocol MK‐8591‐005). In period 1, participants received a single oral dose of 20 mg islatravir. In period 2, participants received multiple oral doses of 50 mg dolutegravir and 300 mg TDF once daily for 11 consecutive days (days 1‐11), with a single oral dose of 20 mg islatravir coadministered on day 8. There was a washout period of ≥7 days between islatravir dosing in period 1 and the first dose of dolutegravir and TDF in period 2 (Figure 1).
Blood samples for islatravir plasma analysis were collected before dosing and at selected time points over 96 hours following administration of islatravir on day 1 of period 1 and day 8 of period 2. In period 2, samples taken at 24, 48, and 72 hours for islatravir plasma analysis were collected before dose administration of dolutegravir and TDF. Blood samples for plasma analysis of dolutegravir and tenofovir were collected before dosing on days 1, 7, and 8 of period 2 and at selected time points over 24 hours after dosing on days 7 and 8 of period 2. The 24 hour samples for dolutegravir and tenofovir analysis for days 7 and 8 were collected before dosing of dolutegravir and TDF.
Plasma concentrations of islatravir, dolutegravir, and tenofovir were determined by inVentiv Health Clinique (Québec City, Québec, Canada) using validated high‐performance liquid chromatography coupled to tandem mass spectrometry methods.
Islatravir (m/z 294.000/154.000) was extracted using an automated protein precipitation method using [^13C,^15N3]‐ISL as internal standard (m/z 297.800/158.000). The extracted samples were assessed on a system equipped with a X Select HSS T3 C18, 50×2.1 mm, 2.5 μm column with water/acetonitrile with formic acid mobile phase. […] The lower limit of quantitation for islatravir was 0.10 ng/mL, with an analytical range of 0.10 to 100.00 ng/mL.
Dolutegravir (m/z 420.200/277.200) was extracted using an automated protein precipitation method using [C^13‐d5]‐dolutegravir as the internal standard (m/z 426.300/277.300). The extracted samples were assessed on a system equipped with an ACE 3 C18, 30 × 4.6 mm, 3 μm column (Avantor, Radnor, Pennsylvania) with water/methanol with ammonium formate and formic acid mobile phase. […] The lower limit of quantitation for dolutegravir was 10.00 ng/mL, with an analytical range of 10.00 to 10 000.00 ng/mL.
Tenofovir (m/z 288.200/176.200) was extracted using an automated solid phase extraction using tenofovir‐d6 as internal standard (m/z 294.100/182.300). The extracted samples were assessed on a system equipped with an Atlantis dC18, 75 × 4.6 mm, 3 μm column (Waters Corp., Milford, Massachusetts) with water/acetonitrile with ammonium formate and formic acid mobile phase. […] The lower limit of quantitation for tenofovir was 0.50 ng/mL, with an analytical range of 0.50 to 500.00 ng/mL.
Plasma islatravir, dolutegravir, and tenofovir pharmacokinetics were summarized descriptively. Pharmacokinetic parameter values were calculated using the software Phoenix WinNonlin version 6.3 (Certara, Princeton, New Jersey). Cmax, C24, and tmax values were obtained directly from the observed plasma concentration–time data.

[13] = system: CYP2C9; parameters: method as in PMID 34452431; details: at concentrations up to 100 μM; cited from earlier work
[14] = Safety and tolerability in the phase 1 trial (adverse event reports, laboratory tests, ECG, vital signs); type: in vivo, human; details: for participants reporting AEs considered drug-related: of 12 participants; for tolerability: adults without HIV, N = 12
Procedure: as §1
Safety and tolerability were monitored by repeated clinical and laboratory evaluations for the duration of the trial. Safety evaluations included adverse event (AE) reports, laboratory tests, 12‐lead electrocardiograms, and vital signs.
Incidence of adverse experiences was descriptively summarized.

C#C[C@]1(CO)O[C@@H](n2cnc3c(N)nc(F)nc32)C[C@@H]1O [Islatravir, 4′‐Ethynyl‐2‐fluoro‐2′‐deoxyadenosine]
inhibitory effects on uridine diphosphate glucuronosyltransferase 1A1 [1]: No inhibitory effects | inhibitory effect on CYP2C8 [2]: no inhibitory effect | inhibitory effect on CYP2B6 [3]: no inhibitory effect | interference with drug transporters, pumps, transfer proteins, extrusion proteins, or resistance proteins [4]: not found to interfere | inhibitory effect on CYP1A2 [5]: no inhibitory effect | inhibitory effect on CYP2D6 [6]: no inhibitory effect | duration of maintained virologic suppression [7]: up to 48 weeks | inhibitory effect on CYP3A4 [8]: no inhibitory effect | duration of effective viral suppression [9]: up to 7 days | inhibitory effect on CYP2C19 [10]: no inhibitory effect | time to peak plasma concentrations [11]: ≈ 0.5 hours | increase of islatravir AUC0‐inf on coadministration ([12]; coadministration with steady-state dolutegravir and TDF compared with islatravir administered alone): 28% | half-life ([12]; human, oral, plasma islatravir, single 20 mg islatravir on day 8 with 50 mg dolutegravir + 300 mg TDF once daily, period 2, N = 12, read-out: Apparent terminal t1/2, geometric mean (geometric CV %) (converted)): 55.9 h | AUC ([12]; human, plasma, oral, plasma islatravir, single 20 mg islatravir on day 8 with 50 mg dolutegravir + 300 mg TDF once daily days 1-11, period 2, N = 12, read-out: AUC0‐inf, AM (SD)): 2.53 µM·h | AUC ([12]; human, plasma, oral, plasma islatravir, single 20 mg islatravir on day 8 with 50 mg dolutegravir + 300 mg TDF once daily days 1-11, period 2, N = 12, read-out: AUC0‐inf, GM (95%CI)): 2.51 µM·h | Cmax ([12]; human, plasma, oral, plasma islatravir, single 20 mg islatravir on day 8 with 50 mg dolutegravir + 300 mg TDF once daily days 1-11, period 2, N = 12, read-out: Cmax, AM (SD)): 522 nM | Cmax ([12]; human, plasma, oral, plasma islatravir, single 20 mg islatravir on day 8 with 50 mg dolutegravir + 300 mg TDF once daily days 1-11, period 2, N = 12, read-out: Cmax, GM (95%CI)): 510 nM | half-life ([12]; human, plasma, oral, plasma islatravir, single 20 mg islatravir on day 8 with 50 mg dolutegravir + 300 mg TDF once daily, period 2, N = 12, read-out: Apparent terminal t1/2, AM (SD) (converted)): 56.2 h | AUC ([12]; human, plasma, po, 20 mg, plasma islatravir, islatravir alone, single oral 20 mg, day 1 period 1, N = 12, read-out: AUC0‐inf, AM (SD)): 2 µM·h | AUC ([12]; human, plasma, po, 20 mg, plasma islatravir, islatravir alone, single oral 20 mg, day 1 period 1, N = 12, read-out: AUC0‐inf, GM (95%CI)): 1.97 µM·h | half-life ([12]; human, plasma, po, 20 mg, plasma islatravir, islatravir alone, single oral 20 mg, day 1 period 1, N = 12, read-out: Apparent terminal t1/2, AM (SD) (converted)): 57.2 h | half-life ([12]; human, plasma, po, 20 mg, plasma islatravir, islatravir alone, single oral 20 mg, day 1 period 1, N = 12, read-out: Apparent terminal t1/2, geometric mean (geometric CV %) (converted)): 56.6 h | Cmax ([12]; human, plasma, po, 20 mg, plasma islatravir, islatravir alone, single oral 20 mg, day 1 period 1, N = 12, read-out: Cmax, AM (SD)): 495 nM | Cmax ([12]; human, plasma, po, 20 mg, plasma islatravir, islatravir alone, single oral 20 mg, day 1 period 1, N = 12, read-out: Cmax, GM (95%CI)): 479 nM | Tmax ([12]; human, plasma, po, 20 mg, plasma islatravir, islatravir alone, single oral 20 mg, day 1 period 1, N = 12, read-out: tmax, median (min‐max)): 0.75 h | tmax, median (min‐max) ([12]; plasma islatravir, single 20 mg islatravir on day 8 with 50 mg dolutegravir + 300 mg TDF once daily, period 2, N = 12): 1.00 (0.50‐2.01) h | inhibitory effect on CYP2C9 [13]: no inhibitory effect | participants reporting AEs considered drug-related ([14]; after administration of islatravir): 3 participants | participants reporting AEs considered drug-related ([14]; after coadministration of all 3 therapies (islatravir, dolutegravir, TDF)): 1 participant | tolerability ([14]; islatravir alone, single oral 20 mg): generally well tolerated | tolerability ([14]; islatravir in combination with dolutegravir and TDF): generally well tolerated
